19 molecules from patent publication US7250413B2, “C-25 carbamate rifamycin derivatives with activity against drug-resistant microbes” (Cumbre Pharmaceuticals Inc., priority 2004, dated 2007) can be followed below.

Molecules are shown by their SMILES. In brackets after ≈: the same amount, converted by molar mass.

What all share (test): MIC, microbroth dilution
Holding throughout (assay type): cell-based
Background: Broth dilution looks for growth in wells or tubes with falling amounts of substance.

The test system of assay [1] is Mycobacterium smegmatis ATCC700084. As to conditions: Mycolicibacterium smegmatis, ATCC700084; rifS; Middlebrook Broth plus ADC Enrichment, 37° C.; read-out: MIC. As for the experimental part: (§1) Representative compounds were assayed for antimicrobial activity as follows: Minimum Inhibitory Concentrations (“MICs”) were determined by the microbroth dilution method as per NCCLS guidelines (National Committee for Clinical Laboratory Standards, 2000), except that all growth incubations were conducted at 37° C. Bacterial cultures were tested in the following bacteriological media: S. aureus, S. epidermidis, and E. coli in Cation-Adjusted Mueller-Hinton Broth, S. pneumoniae in THY Broth supplemented with 1 mg/mL catalase under 5% CO2 atmosphere, S. pyogenes in THY Broth, E. faecalis in BHI Broth, H. influenzae in BHI Broth supplemented with 0.75 μL of 1 mg/mL NAD and 150 μL of 1 mg/ml hematin per 5 mL, and M smegmatis in Middlebrook Broth plus ADC Enrichment.

The subject of assay [2] is Staphylococcus aureus ATCC29213. As to conditions: rifS, Cation-Adjusted Mueller-Hinton Broth, 37° C., read-out: MIC. How it is done: as §1
The subject of assay [3] is Enterococcus faecalis ATCC29212. The conditions noted are these: rifS, BHI Broth, 37° C., read-out: MIC. How it is done:
as §1

On to `C#CCNC(=O)O[C@H]1[C@H](C)[C@H](O)[C@H](C)[C@@H](O)[C@@H](C)/C=C/C=C(/C)C(=O)NC2=C(N3CCOCC3)C(=O)c3c(c(O)c(C)c4c3C(=O)[C@@](C)(O/C=C/[C@H](OC)[C@H]1C)O4)C2=O` [Example 43, 25-O-Desacetyl-(carbonyl-prop-2-ynylamino) 3-morpholino rifamycin S], for which the MIC (usually the lowest concentration that inhibits growth of the organism) lay in the range of 0.063 to 31 µg/mL in assay [1], 0.002 to 1.95 µg/mL (≈ 0.00244 to 2.38 µM) in assay [2] and 0.25 to 62 µg/mL (≈ 0.305 to 75.6 µM) in assay [3].
For `CO[C@H]1/C=C/O[C@@]2(C)Oc3c(C)c(O)c4c(c3C2=O)C(=O)C(N2CCOCC2)=C(NC(=O)/C(C)=C\C=C\[C@H](C)[C@H](O)[C@@H](C)[C@@H](O)[C@@H](C)[C@H](OC(=O)NCC#Cc2cnc3ccccc3c2)[C@@H]1C)C4=O` [Example 45, 25-O-Desacetyl-(carbonyl-3-quinolin-3-yl-prop-2-ynylamine) 3-morpholino rifamycin S] the same measures were 0.063 to 31 µg/mL, 0.002 to 1.95 µg/mL (≈ 0.00211 to 2.06 µM) and 0.25 to 62 µg/mL (≈ 0.264 to 65.5 µM).
Taken in the same sequence, the figures for `CO[C@H]1/C=C/O[C@@]2(C)Oc3c(C)c(O)c4c(c3C2=O)C(=O)C(N2CCOCC2)=C(NC(=O)/C(C)=C\C=C\[C@H](C)[C@H](O)[C@@H](C)[C@@H](O)[C@@H](C)[C@H](OC(=O)NCCN2CCN(C)CC2)[C@@H]1C)C4=O` [Example 9, 25-O-Desacetyl-(1-carbonyl-2-(4-methyl-piperazin-1-yl)-ethylamine) 3-morpholino rifamycin S] were 0.063 to 31 µg/mL, 0.002 to 1.95 µg/mL (≈ 0.0022 to 2.15 µM) and 0.25 to 62 µg/mL (≈ 0.275 to 68.3 µM).
Take `COc1c(N2CCCC(NC3CCN(C(=O)O[C@H]4[C@H](C)[C@H](O)[C@H](C)[C@@H](O)[C@@H](C)/C=C/C=C(/C)C(=O)NC5=C(N6CCOCC6)C(=O)c6c(c(O)c(C)c7c6C(=O)[C@@](C)(O/C=C/[C@H](OC)[C@H]4C)O7)C5=O)CC3)C2)c(F)cc2c(=O)c(C(=O)O)cn(C3CC3)c12` (stereo partly drawn) [Example 59]: the minimum inhibitory concentration (MIC) in assay [1] was 0.063 to 31 µg/mL; in assay [2] it was 0.002 to 1.95 µg/mL (≈ 0.00163 to 1.59 µM); in assay [3] it was 0.25 to 62 µg/mL (≈ 0.204 to 50.7 µM).
Taken in the same sequence, the figures for `COc1c(N2CCN(C3CCN(C(=O)O[C@H]4[C@H](C)[C@H](O)[C@H](C)[C@@H](O)[C@@H](C)/C=C/C=C(/C)C(=O)NC5=C(N6CCOCC6)C(=O)c6c(c(O)c(C)c7c6C(=O)[C@@](C)(O/C=C/[C@H](OC)[C@H]4C)O7)C5=O)C3)CC2)c(F)cc2c(=O)c(C(=O)O)cn(C3CC3)c12` (stereo partly drawn) [Example 62] were 0.063 to 31 µg/mL, 0.002 to 1.95 µg/mL (≈ 0.00167 to 1.63 µM) and 0.25 to 62 µg/mL (≈ 0.209 to 51.9 µM).
For `CO[C@H]1/C=C/O[C@@]2(C)Oc3c(C)c(O)c4c(c3C2=O)C(=O)C(N2CCOCC2)=C(NC(=O)/C(C)=C\C=C\[C@H](C)[C@@H]2OC(C)(C)O[C@@H]([C@@H](C)[C@H](OC(=O)n3ccnc3)[C@@H]1C)[C@@H]2C)C4=O` [Example 4] the same measures were 0.063 to 31 µg/mL, 0.002 to 1.95 µg/mL (≈ 0.00229 to 2.23 µM) and 0.25 to 62 µg/mL (≈ 0.286 to 71 µM).
For `CO[C@H]1/C=C/O[C@@]2(C)Oc3c(C)c(O)c4c(c3C2=O)C(=O)C(N2CCOCC2)=C(NC(=O)/C(C)=C\C=C\[C@H](C)[C@H](O)[C@@H](C)[C@@H](O)[C@@H](C)[C@H](OC(=O)N2CCN(c3ccc(C(=O)Nc5ccc6[nH]c(C)cc6c5)cc3C(F)(F)F)CC2)[C@@H]1C)C4=O` [Example 51, 25-O-Desacetyl-(carbonyl-N-(2-methyl-1H-indol-5-yl)-4-piperazin-1-yl-3-trifluoromethyl-benzamide) 3-morpholino rifamycin S], the MIC in assay [1] was 0.063 to 31 µg/mL; in assay [2], 0.002 to 1.95 µg/mL (≈ 0.00171 to 1.67 µM); in assay [3] it was 0.25 to 62 µg/mL (≈ 0.214 to 53.1 µM).
With `CNC(=O)O[C@H]1[C@H](C)[C@H](O)[C@H](C)[C@@H](O)[C@@H](C)/C=C/C=C(/C)C(=O)NC2=C(N3CCOCC3)C(=O)c3c(c(O)c(C)c4c3C(=O)[C@@](C)(O/C=C/[C@H](OC)[C@H]1C)O4)C2=O` [Example 21, 25-O-Desacetyl-(carbonyl-methylamino) 3-morpholino rifamycin S], the minimum inhibitory concentration (MIC) in assay [1] was in the range of 0.063 to 31 µg/mL; in assay [2], 0.002 to 1.95 µg/mL (≈ 0.00251 to 2.45 µM); in assay [3], 0.25 to 62 µg/mL (≈ 0.314 to 77.9 µM).
Taken in the same sequence, the figures for `CO[C@H]1/C=C/O[C@@]2(C)Oc3c(C)c(O)c4c(c3C2=O)C(=O)C(N2CCOCC2)=C(NC(=O)/C(C)=C\C=C\[C@H](C)[C@H](O)[C@@H](C)[C@@H](O)[C@@H](C)[C@H](OC(=O)NCC(=O)NC2CCN(c3c(F)cc5c(=O)c(C(=O)O)cn(C6CC6)c5c3Cl)C2)[C@@H]1C)C4=O` (stereo partly drawn) [Example 63] were 0.063 to 31 µg/mL, 0.002 to 1.95 µg/mL (≈ 0.00168 to 1.64 µM) and 0.25 to 62 µg/mL (≈ 0.21 to 52.2 µM).
Taken in the same sequence, the figures for `CO[C@H]1/C=C/O[C@@]2(C)Oc3c(C)c(O)c4c(c3C2=O)C(=O)C(N2CCOCC2)=C(NC(=O)/C(C)=C\C=C\[C@H](C)[C@H](O)[C@@H](C)[C@@H](O)[C@@H](C)[C@H](OC(=O)N2CCCC2)[C@@H]1C)C4=O` [Example 14, 25-O-Desacetyl-(carbonyl-1-pyrrolidino) 3-morpholino rifamycin S] were 0.063 to 31 µg/mL, 0.002 to 1.95 µg/mL (≈ 0.00239 to 2.33 µM) and 0.25 to 62 µg/mL (≈ 0.299 to 74.2 µM).
For `COc1ccccc1-c1cc(CNC(=O)O[C@H]2[C@H](C)[C@H](O)[C@H](C)[C@@H](O)[C@@H](C)/C=C/C=C(/C)C(=O)NC3=C(N4CCOCC4)C(=O)c4c(c(O)c(C)c5c4C(=O)[C@@](C)(O/C=C/[C@H](OC)[C@H]2C)O5)C3=O)on1` [Example 46, 25-O-Desacetyl-(carbonyl-C-[3-(2-methoxy-phenyl)-isoxazol-5-yl]-methylamino) 3-morpholino rifamycin S] the same measures were 0.063 to 31 µg/mL, 0.002 to 1.95 µg/mL (≈ 0.00206 to 2.01 µM) and 0.25 to 62 µg/mL (≈ 0.258 to 64 µM).
As to `CO[C@H]1/C=C/O[C@@]2(C)Oc3c(C)c(O)c4c(c3C2=O)C(=O)C(N2CCOCC2)=C(NC(=O)/C(C)=C\C=C\[C@H](C)[C@H](O)[C@@H](C)[C@@H](O)[C@@H](C)[C@H](OC(=O)NCc2ccccc2)[C@@H]1C)C4=O` [Example 15, 25-O-Desacetyl (carbonyl-benzyl) 3-morpholino rifamycin S], the MIC in assay [1] was in the range of 0.063 to 31 µg/mL; in assay [2] it was 0.002 to 1.95 µg/mL (≈ 0.00229 to 2.24 µM); in assay [3], 0.25 to 62 µg/mL (≈ 0.287 to 71.1 µM).
Taken in the same sequence, the figures for `CO[C@H]1/C=C/O[C@@]2(C)Oc3c(C)c(O)c4c(c3C2=O)C(=O)C(N2CCOCC2)=C(NC(=O)/C(C)=C\C=C\[C@H](C)[C@H](O)[C@@H](C)[C@@H](O)[C@@H](C)[C@H](OC(=O)N2CCC(N3CCCCC3)CC2)[C@@H]1C)C4=O` [Example 35, 25-O-Desacetyl-(carbonyl-[1,4′]bipiperidinyl) 3-morpholino rifamycin S] were 0.063 to 31 µg/mL, 0.002 to 1.95 µg/mL (≈ 0.00214 to 2.09 µM) and 0.25 to 62 µg/mL (≈ 0.268 to 66.4 µM).
Taken in the same sequence, the figures for `CO[C@H]1/C=C/O[C@@]2(C)Oc3c(C)c(O)c4c(c3C2=O)C(=O)C(N2CCOCC2)=C(NC(=O)/C(C)=C\C=C\[C@H](C)[C@H](O)[C@@H](C)[C@@H](O)[C@@H](C)[C@H](OC(=O)NC2CCN(Cc3ccccc3)CC2)[C@@H]1C)C4=O` [Example 33, 25-O-Desacetyl-(carbonyl-1-benzyl-piperidin-4-ylamine) 3-morpholino rifamycin S] were 0.063 to 31 µg/mL, 0.002 to 1.95 µg/mL (≈ 0.00209 to 2.04 µM) and 0.25 to 62 µg/mL (≈ 0.262 to 64.9 µM).
Regarding `COc1c(N2CCN(C3CCN(C(=O)O[C@H]4[C@H](C)[C@H](O)[C@H](C)[C@@H](O)[C@@H](C)/C=C/C=C(/C)C(=O)NC5=C(N6CCOCC6)C(=O)c6c(c(O)c(C)c7c6C(=O)[C@@](C)(O/C=C/[C@H](OC)[C@H]4C)O7)C5=O)CC3)CC2)c(F)cc2c(=O)c(C(=O)O)cn(C3CC3)c12` [Example 60], the minimum inhibitory concentration (MIC) in assay [1] is 0.063 to 31 µg/mL; in assay [2], 0.002 to 1.95 µg/mL (≈ 0.00165 to 1.61 µM); in assay [3] it was 0.25 to 62 µg/mL (≈ 0.207 to 51.3 µM).
For `CO[C@H]1/C=C/O[C@@]2(C)Oc3c(C)c(O)c4c(c3C2=O)C(=O)C(N2CCOCC2)=C(NC(=O)/C(C)=C\C=C\[C@H](C)[C@H](O)[C@@H](C)[C@@H](O)[C@@H](C)[C@H](OC(=O)NCc2cc(-c3ccccn3)no2)[C@@H]1C)C4=O` [Example 47, 25-O-Desacetyl-(carbonyl-C-(3-Pyridin-2-yl-isoxazol-5-yl)-methylamino) 3-morpholino rifamycin S] the same measures were 0.063 to 31 µg/mL, 0.002 to 1.95 µg/mL (≈ 0.00213 to 2.07 µM) and 0.25 to 62 µg/mL (≈ 0.266 to 66 µM).
Taken in the same sequence, the figures for `CO[C@H]1/C=C/O[C@@]2(C)Oc3c(C)c(O)c4c(c3C2=O)C(=O)C(N2CCOCC2)=C(NC(=O)/C(C)=C\C=C\[C@H](C)[C@H](O)[C@@H](C)[C@@H](O)[C@@H](C)[C@H](OC(=O)NCCc2ccccn2)[C@@H]1C)C4=O` [Example 18, 25-O-Desacetyl-(1-carbonyl-(2-pyridin-2-yl-ethylamine)) 3-morpholino rifamycin S] were 0.063 to 31 µg/mL, 0.002 to 1.95 µg/mL (≈ 0.00225 to 2.2 µM) and 0.25 to 62 µg/mL (≈ 0.282 to 69.9 µM).
As for `CO[C@H]1/C=C/O[C@@]2(C)Oc3c(C)c(O)c4c(c3/C2=N/O)C(=O)C(N2CCOCC2)=C(NC(=O)/C(C)=C\C=C\[C@H](C)[C@H](O)[C@@H](C)[C@@H](O)[C@@H](C)[C@H](OC(=O)NCCN(C)C)[C@@H]1C)C4=O` [Example 69], the values for the minimum inhibitory concentration (MIC) in assay [1], in assay [2] and in assay [3] were 0.063 to 31 µg/mL, 0.002 to 1.95 µg/mL (≈ 0.0023 to 2.25 µM) and 0.25 to 62 µg/mL (≈ 0.288 to 71.4 µM), respectively.
For `CO[C@H]1/C=C/O[C@@]2(C)Oc3c(C)c(O)c4c(c3C2=O)C(=O)C(N2CCOCC2)=C(NC(=O)/C(C)=C\C=C\[C@H](C)[C@H](O)[C@@H](C)[C@@H](O)[C@@H](C)[C@H](OC(=O)NCCO)[C@@H]1C)C4=O` [Example 20, 25-O-Desacetyl-(1-carbonyl-2-aminoethanol) 3-morpholino rifamycin S] the same measures were 0.063 to 31 µg/mL, 0.002 to 1.95 µg/mL (≈ 0.00242 to 2.36 µM) and 0.25 to 62 µg/mL (≈ 0.303 to 75.1 µM).
